Here are results for 45 molecules from ChEMBL document CHEMBL1141176, “Quantitative structure-activity relationship (5D-QSAR) study of combretastatin-like analogues as inhibitors of tubulin assembly” (J Med Chem, 2005).

What is called IC50 is the concentration needed to halve the response being measured. Low values mean greater potency, high ones weaker potency.

Chain of Tubulin beta-1 chain (Q9H4B7 whole entry): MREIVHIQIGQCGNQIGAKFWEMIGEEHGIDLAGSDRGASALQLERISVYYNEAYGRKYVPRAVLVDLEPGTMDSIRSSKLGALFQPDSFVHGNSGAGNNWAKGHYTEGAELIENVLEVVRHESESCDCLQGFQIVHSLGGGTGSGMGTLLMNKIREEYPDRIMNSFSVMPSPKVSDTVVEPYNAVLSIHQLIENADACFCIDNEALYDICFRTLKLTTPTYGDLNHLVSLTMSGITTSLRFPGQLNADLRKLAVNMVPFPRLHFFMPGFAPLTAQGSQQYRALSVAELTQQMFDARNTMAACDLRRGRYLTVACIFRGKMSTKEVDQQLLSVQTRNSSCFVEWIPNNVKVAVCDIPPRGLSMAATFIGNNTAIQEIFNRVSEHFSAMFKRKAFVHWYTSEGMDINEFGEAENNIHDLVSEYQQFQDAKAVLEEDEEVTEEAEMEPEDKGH

The test concerns the target Tubulin beta-1 chain (Homo sapiens, UniProt Q9H4B7). Briefly: Concentration required for 50% inhibition of tubulin polymerization.
`COc1cc(C(=O)/C=C/c2ccc(O)c(O)c2)cc(OC)c1OC` yielded an IC50 above 100000 nM.
In the case of `COc1ccc(OCc2cc(OC)c(OC)c(OC)c2)cc1O`, the IC50 stood at 21000 nM.
Molecule `COc1ccc(Nc2cc(OC)c(OC)c(OC)c2)cc1O` gave an IC50 above 100000 nM.
The figure for `COc1ccc(OCc2cc(OC)c(OC)c(OC)c2)cc1C=O` is 560 nM.
The figure for `COc1ccc(COc2cc(OC)c(OC)c(OC)c2)cc1OCC=O` is 41000 nM; for `COc1ccc(OCc2cc(OC)c(OC)c(OC)c2)cc1CO` it is above 100000 nM.
The figure for `COc1ccc(/C=C\c2ccc(C)c(C)c2)cc1O` is 3100 nM; for `COc1ccc(/C=C\c2cc(F)c(F)c(F)c2)cc1O` it is 4500 nM; for `COc1cc(C(=O)/C=C/c2cc(F)c(OC)c(F)c2)cc(OC)c1OC` it is 12000 nM.
`COc1ccc(/C=C(/C)c2cc(OC)c(OC)c(OC)c2)cc1` had an IC50 of 1300 nM.
In turn, `COc1ccc(/C=C(\C)C(O)c2cc(OC)c(OC)c(OC)c2)cc1O` (stereo not given) came in with an IC50 above 10000 nM.
`COc1ccc(/C=C\c2cc(C)c(C)c(C)c2)cc1F` had a concentration for half-maximal inhibition (IC50) of 700 nM.
On to `COc1ccc(C(=O)/C=C/c2cc(F)c(OC)c(F)c2)c(OC)c1OC`, for which inhibition was half-maximal at 31000 nM (IC50).
As for `COc1ccc(C(=O)/C=C/c2cc(O)c(O)c(O)c2)c(OC)c1OC`, the IC50 is above 100000 nM.
The molecule `CCOc1cc(/C=C\c2ccc(OC)c(F)c2)cc(OCC)c1OCC` showed an IC50 of 1200 nM. In other words, the single-digit micromolar range.
To `COc1ccc(/C=C\c2cc(C)c(C)c(C)c2)cc1` belongs 650 nM; to `CCOc1cc(/C=C\c2ccc(OC)c(O)c2)cc(OCC)c1OCC`, 500 nM.
In turn, `COc1ccc(/C=C/C(=O)c2cc(OC)c(OC)c(OC)c2)cc1F` gave an IC50 of 1200 nM.
In the case of `COc1ccc(CC(C)C(=O)c2cc(OC)c(OC)c(OC)c2)cc1O` (stereo not given), the IC50 stood at 4000 nM.
`COc1ccc(/C=C(/C)c2cc(OC)c(OC)c(OC)c2)cc1O`: the IC50 was 130 nM. This IC50 lies about 31-fold lower than the previous one.
As for `COc1ccc(/C(C)=C/c2cc(OC)c(OC)c(OC)c2)cc1O`, the IC50 was 9000 nM.
The figure for `CO/C(=C\c1cc(F)c(OC)c(F)c1)C(=O)c1cc(OC)c(OC)c(OC)c1` is 1700 nM; for `COc1ccc(/C=C\c2cc(O)c(OC)c(OC)c2)cc1F` it is 1250 nM; for `COc1ccc(/C=C\c2ccc(C)c(C)c2)cc1F` it is 6600 nM.
The figure for `CC/C(=C/c1ccc(OC)c(O)c1)c1cc(OC)c(OC)c(OC)c1` is 130 nM; for `COc1ccc(/C=C\c2cc(F)c(F)c(F)c2)cc1F` it is 5500 nM; for `COc1cc(C(=O)/C(C)=C/c2cc(F)c(OC)c(F)c2)cc(OC)c1OC` it is 2400 nM.
The figure for `COc1ccc(/C=C/C(=O)c2ccc(OC)c(OC)c2OC)cc1O` is 450 nM.
Turning to `COc1ccc(/C=C/C(=O)c2ccc(OC)c(OC)c2OC)cc1F`, inhibition was half-maximal at 7900 nM (IC50).
The molecule `COc1ccc(COc2cc(OC)c(OC)c(OC)c2)cc1O` displayed an IC50 of 7200 nM. This IC50 and that of the molecule before are within 1.5-fold of each other.
`COc1ccc(Oc2cc(OC)c(OC)c(OC)c2)cc1O` had an IC50 of 11000 nM.
As for `COc1ccc(COc2cc(OC)c(OC)c(OC)c2)cc1OCC(O)CO` (stereo not given), the IC50 was above 100000 nM.
To `CO/C(=C\c1ccc(OC)c(O)c1)C(=O)c1cc(OC)c(OC)c(OC)c1` belongs 510 nM; to `COc1cc(/C=C\c2ccc(C)c(C)c2)cc(OC)c1OC`, 2000 nM; to `COc1ccc(/C=C(\C)C(=O)c2cc(OC)c(OC)c(OC)c2)cc1[N+](=O)[O-]`, above 10000 nM.
The figure for `COc1ccc(/C=C\c2ccccc2)cc1O` is 2500 nM; for `COc1ccc(/C=C\c2cc(C)c(C)c(C)c2)cc1O` it is 120 nM.
The figure for `CO/C(=C\c1ccc(OC)c(F)c1)C(=O)c1cc(OC)c(OC)c(OC)c1` is 470 nM; for `COc1ccc(/C=C(\C)C(=O)c2cc(OC)c(OC)c(OC)c2)cc1F` it is 650 nM; for `COc1ccc(/C=C/C(=O)c2cc(OC)c(OC)c(OC)c2)cc1N` it is 2000 nM.
With `COc1ccc(/C=C\c2cc(OC)c(OC)c(OC)c2)cc1`, inhibition was half-maximal at 200 nM (IC50).
The figure for `CCc1ccc(/C=C\c2cc(OC)c(OC)c(OC)c2)cc1` is 3400 nM.
The figure for `COc1ccc(OC)c(C(=O)/C(C)=C/c2ccc(N(C)C)cc2)c1` is 10000 nM; for `COc1ccc(/C=C(\C)C(=O)c2cc(OC)c(OC)c(OC)c2)cc1O` it is 460 nM; for `COc1ccc(/C=C/C(=O)c2cc(OC)c(OC)c(OC)c2)cc1O` it is 620 nM.
